Toxic doses and inconclusive results are not listed. How the source made its calls: active means survival T/C of 150% or more; inactive means T/C below 125% in these data.
System: CD2F1 mice, L1210 leukemia ip, survival T/C
Experiment: NCI In Vivo Anticancer Drug Screen. Data for tumor model L1210 Leukemia (intraperitoneal) in CD2F1 (CDF1) mice
Conditions: higher = longer survival
Procedure, shortened: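 Ratio T/C, where T is the treated-group value and C the vehicle-dosed control value, from mice implanted with a transplantable tumor.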

[1] = endpoint: mean survival time, dose: 100.0 mg/kg/injection, schedule: Q01DX009 (ip), vehicle: saline with Tween-80
[2] = endpoint: mean survival time, dose: 200.0 mg/kg/injection, schedule: Q01DX009 (ip), vehicle: saline with Tween-80
[3] = endpoint: mean survival time, dose: 400.0 mg/kg/injection, schedule: Q01DX009 (ip), vehicle: saline with Tween-80

Measured: T/C

[Cl][Hg][c]1ccco1
inactive: endpoint: mean survival time, dose: 1.25 mg/kg/injection, schedule: Q01DX001 (ip), vehicle: Klucel (hydroxypropylcellulose) (HPC) 100 % of control | endpoint: mean survival time, dose: 2.5 mg/kg/injection, schedule: Q01DX001 (ip), vehicle: Klucel (hydroxypropylcellulose) (HPC) 96 % of control | endpoint: mean survival time, dose: 5.0 mg/kg/injection, schedule: Q01DX001 (ip), vehicle: Klucel (hydroxypropylcellulose) (HPC) 97 % of control

CCOC/C=C/C1CCCCC1
inactive: endpoint: mean survival time, dose: 50.0 mg/kg/injection, schedule: Q01DX009 (ip), vehicle: saline with Tween-80 117 % of control | [1] 97 % of control | [2] 97 % of control

CC1OC(n2ccc(=O)[nH]c2=O)C(O)C(O)C1=O (stereo not drawn)
inactive: endpoint: median survival time, dose: 26.5 mg/kg/injection, schedule: Q01DX005 (ip), vehicle: Klucel (hydroxypropylcellulose) (HPC) 102 % of control | endpoint: median survival time, dose: 53.0 mg/kg/injection, schedule: Q01DX005 (ip), vehicle: Klucel (hydroxypropylcellulose) (HPC) 100 % of control | endpoint: median survival time, dose: 106.0 mg/kg/injection, schedule: Q01DX005 (ip), vehicle: Klucel (hydroxypropylcellulose) (HPC) 107 % of control | endpoint: median survival time, dose: 212.0 mg/kg/injection, schedule: Q01DX005 (ip), vehicle: Klucel (hydroxypropylcellulose) (HPC) 101 % of control

c1ccc2n[se]nc2c1
inactive: endpoint: mean survival time, dose: 3.13 mg/kg/injection, schedule: Q01DX009 (ip), vehicle: saline 98 % of control | endpoint: mean survival time, dose: 3.13 mg/kg/injection, schedule: Q04DX003 (ip), vehicle: saline 97 % of control | endpoint: mean survival time, dose: 6.25 mg/kg/injection, schedule: Q01DX009 (ip), vehicle: saline 94 % of control | endpoint: mean survival time, dose: 6.25 mg/kg/injection, schedule: Q04DX003 (ip), vehicle: saline 101 % of control | endpoint: mean survival time, dose: 12.5 mg/kg/injection, schedule: Q01DX009 (ip), vehicle: saline 96 % of control | endpoint: mean survival time, dose: 12.5 mg/kg/injection, schedule: Q04DX003 (ip), vehicle: saline 103 % of control

Cn1ccc(CON)n1
inactive: endpoint: mean survival time, dose: 100.0 mg/kg/injection, schedule: Q01DX009 (ip), vehicle: saline 94 % of control | endpoint: mean survival time, dose: 200.0 mg/kg/injection, schedule: Q01DX009 (ip), vehicle: saline 93 % of control

CC(C)(C)C1=CC(=N/S(=O)(=O)c2ccccc2)/C(N=[N+]=[N-])=C(Cl)C/1=N\S(=O)(=O)c1ccccc1
inactive: endpoint: mean survival time, dose: 25.0 mg/kg/injection, schedule: Q01DX001 (ip), vehicle: saline with Tween-80 101 % of control | endpoint: mean survival time, dose: 50.0 mg/kg/injection, schedule: Q01DX001 (ip), vehicle: saline with Tween-80 93 % of control | endpoint: mean survival time, dose: 100.0 mg/kg/injection, schedule: Q01DX001 (ip), vehicle: saline with Tween-80 93 % of control | endpoint: mean survival time, dose: 200.0 mg/kg/injection, schedule: Q01DX001 (ip), vehicle: saline with Tween-80 95 % of control | endpoint: mean survival time, dose: 400.0 mg/kg/injection, schedule: Q01DX001 (ip), vehicle: saline with Tween-80 100 % of control

O=c1ccnc[nH]1
inactive: endpoint: mean survival time, dose: 100.0 mg/kg/injection, schedule: Q04DX003 (ip), vehicle: saline sonified 93 % of control | endpoint: mean survival time, dose: 200.0 mg/kg/injection, schedule: Q04DX003 (ip), vehicle: saline sonified 104 % of control | endpoint: mean survival time, dose: 400.0 mg/kg/injection, schedule: Q04DX003 (ip), vehicle: saline sonified 104 % of control

Nc1nc(=S)n(C2OCC(O)C(O)C2O)c2ccccc12 (stereo not drawn)
inactive: endpoint: mean survival time, dose: 12.5 mg/kg/injection, schedule: Q01DX005 (ip), vehicle: distilled water + Tween-80 97 % of control | endpoint: mean survival time, dose: 25.0 mg/kg/injection, schedule: Q01DX005 (ip), vehicle: distilled water + Tween-80 96 % of control | endpoint: mean survival time, dose: 50.0 mg/kg/injection, schedule: Q01DX005 (ip), vehicle: distilled water + Tween-80 96 % of control | endpoint: mean survival time, dose: 100.0 mg/kg/injection, schedule: Q01DX005 (ip), vehicle: distilled water + Tween-80 96 % of control | endpoint: mean survival time, dose: 200.0 mg/kg/injection, schedule: Q01DX005 (ip), vehicle: distilled water + Tween-80 91 % of control

O=C(Nc1ccc(Cl)cc1)OCCN1CCOCC1
inactive: [1] 90 % of control | endpoint: mean survival time, dose: 100.0 mg/kg/injection, schedule: Q04DX003 (ip), vehicle: saline with Tween-80 93 % of control | [2] 92 % of control | endpoint: mean survival time, dose: 200.0 mg/kg/injection, schedule: Q04DX003 (ip), vehicle: saline with Tween-80 94 % of control | [3] 91 % of control | endpoint: mean survival time, dose: 400.0 mg/kg/injection, schedule: Q04DX003 (ip), vehicle: saline with Tween-80 89 % of control

CCOC(=O)Cc1cccc(CC(O)(c2ccccc2)c2ccccc2)n1
inactive: [1] 100 % of control | endpoint: mean survival time, dose: 100.0 mg/kg/injection, schedule: Q04DX003 (ip), vehicle: saline 92 % of control | [2] 98 % of control | endpoint: mean survival time, dose: 200.0 mg/kg/injection, schedule: Q04DX003 (ip), vehicle: saline 90 % of control | [3] 100 % of control | endpoint: mean survival time, dose: 400.0 mg/kg/injection, schedule: Q04DX003 (ip), vehicle: saline 87 % of control
